The subject of test [1] is TNFα. The experiment in a line: TNFα mRNA expression in brain tissue after contusion, real-time quantitative PCR. Format: in vivo, rat. To be noted: 3 hours and 6 days post-injury. The text has this:
(§1) Neurosteroid injections were given at 1 hr and 6 hrs after the contusions, and continued once a day for up to 5 consecutive days post-injury.
(§2) Adult male SD rates received either bilateral prefrontal cortical contusions or sham surgeries. The neurosteroid injections were given at 1 hr and 6 hr after the contusions and continued once a day for up to 5 consecutive days post-injury. At 3 hr, 8 hr, 12 hr and 6 days post-injury, the rats were killed and their brains were processed for mRNA extraction. Expression of mRNA for IL-1β and TNFα were assessed using real-time quantitative PCR.

Test [2] deals with IL-1β. The experiment in a line: IL-1β mRNA expression in brain tissue after contusion, real-time quantitative PCR. The test is classed as in vivo, rat.
Description: as §1, §2

The subject of test [3] is rats with bilateral contusions of the medial prefrontal cortex. The experiment in a line: Morris water maze task, Example 6. Format: in vivo, rat. As to the method:
Male Sprague-Dawley rats (300 g) were housed individually in wire cages and kept on a reverse light-dark cycle (0800-2000 h). Animals were assigned to one of four groups: (1) lesion (n=7); (2) lesion +3 days progesterone (LP3; n=7); (3) lesion +5 days progesterone (LP5; n=7); and (4) Sham (n=8). All procedures involving animals conformed to guidelines set forth in the Guide for the Care and Use of Laboratory Animals (U.S. Department of Health and Human Services, Pub no. 85-23, 1985) and were approved by the Emory University Institutional Animal Care and Use Committee.
Bilateral contusions of the medial prefrontal cortex were created by a pneumatic impactor device as previously described. Briefly, rats were given anesthetized with ketamine/xylazine (90 mg/kg; 10 mg/kg) and placed in a stereotaxic apparatus. A craniectomy (diameter 6 mm) was made over the midline of the prefrontal cortex with its center 1.5 mm AP to bregma. After removal of the bone, the tip of the impactor (diameter 5 mm) was moved to +3.0 mm AP; 1.0 mm ML (from bregma), and checked for adequate clearance. Trauma was produced by pneumatically activating the piston to impact −2.0 mm DV (from dura) at a velocity of 3 m/s with a brain contact time of 0.5 seconds.
Progesterone was dissolved in peanut oil (Sigma; 4 mg/kg) and injections were given at 1 and 6 hours post-injury and then once per day for either 3 or 5 consecutive days. Control animals received injections of vehicle at similar time-points. Animals were coded with regard to surgery and treatment to prevent experimenter bias during behavioral testing and histological examination.
Experienced individuals who were blind to treatment conditions of the study conducted all histological and behavioral analyses. All data were tested for normality and homoschedasticity before being analyzed by parametric analysis of variance (ANOVA). MWM results were analyzed using separate mixed-factorial (4 groups×5 days) analysis of variance (ANOVA) on each of the two 5-day testing periods (acquisition and retention respectively). Results of the BSN task were analyzed using the mixed-factorial ANOVA (4 groups×2 post-injury trials). […] Pearson r coefficients were calculated to determine whether significant correlations could be detected between histological (e.g., lesion size and cellular density) and behavioral parameters (e.g., acquisition and retention of the MWM task and measures of sensory neglect).
Beginning one week after surgery, spatial learning ability was assessed in the Morris water maze (MWM) task described previously. […] Animals were placed in the pool (nose facing the pool-wall) at one of four randomly determined starting positions (e.g.: N, S, E, W). […] Swim speed measures were recorded daily in order to delineate motor dysfunction from learning impairment.

Test [4] relates to traumatic brain injury. Kind of test: Morris water maze dose response, progesterone in cyclodextrin vehicle, Example 7. Format: in vivo, rat. As to the method:
The Morris Water Maize (MWM) consisted of a circular tank with a diameter of 133 cm filled with opaque water (20±1° C.; non-toxic Artista™ nontoxic white tempura paint) to a depth of 64 cm (23 cm from top of tank). A platform (11 cm×11 cm) was submerged to a depth of 2 cm and placed approximately 28 cm from the wall of the pool in the center of the northeast quadrant. The position of the platform will remain constant throughout the experiment. MWM testing began seven days after surgery. Each animal was tested for a total of 10 days (2 trials per day) in two 5-day blocks. At the start of each trial, the experimenter placed a rat into the pool at one of four starting positions, and at the same time, activate the computer-interfaced camera tracking system. Each rat was allowed to swim in the pool until it reached the platform or until 90 seconds has passed. […] Once a rat found the platform, it was left there for 20 seconds and then removed from the pool for an intertrial interval of 20 seconds. Each rat was then placed in the pool at another start position and the procedure described earlier was repeated. The performance of each rat was measured in terms of latency to platform, length of path to platform, and swim strategy, i.e., percent of total time spent in the outer versus inner annuli.
(§3) Surgery to induce a traumatic brain injury was performed as outlined in Example 1. Behavior testing using the Morris Water Maize was performed as outlined in Example 1 and the methods for the tactical adhesive removal were performed as outlined in Example 4.

Test [5] concerns traumatic brain injury. The experiment in a line: Sticker removal task (tactile adhesive removal) dose response, Example 7. Format: in vivo, rat.
Description: On the 7th and 27th days post-injury, the rats will be assessed on their responsivity to focal somatosensory stimuli by requiring them to remove sticky paper from their forelimbs. Pairs of circular adhesive papers will be attached to the distal-radial areas of each forelimb and the animal will be returned to its home cage while the investigator holds the forepaws apart and keeps them away from the rat's mouth. The rats' latencies to remove the stimuli with their mouth will be recorded. The maximum length of a “test” trial will be 2 minutes, with each rat receiving four trials with 2 minute intertrial intervals.
as §3

In test [6] the test system is contusion injury. The note with it: cited from earlier work.
Test [7] deals with blood-brain barrier (BBB). To be noted: in vitro; macromolecules vs ions such as sodium; cited from earlier work.
Test [8] has as its system cell death. The note with it: by attenuating release of inflammatory cytokines; cited from earlier work.

On to `CC(=O)[C@H]1CC[C@H]2[C@@H]3CCC4=CC(=O)CC[C@]4(C)[C@H]3CC[C@]12C` [progesterone], for which the “TNFα mRNA expression” value in test [1] is “reduced the expression of both IL-1β and TNFα”. For the same molecule, the “IL-1β mRNA expression” value in test [2] (3 hours and 6 days post-injury) was “reduced the expression of both IL-1β and TNFα”; in test [2] (8 hrs post-injury), “but not progesterone, enhanced”. Also, in test [3] (4 mg/kg in peanut oil, 3 or 5 days, all injured groups), the “spatial learning performance, initial 5-day acquisition phase” value is “displayed deficits in spatial learning performance as compared to control animals”. Also, the “spatial learning performance, second 5-day trial block” value in test [3] (4 mg/kg in peanut oil, 5 days (LP5)) is given as “improved spatial learning performance”. Further, the swim speed result in test [3] (3 or 5 days, any day of testing) is recorded as “no between-group differences”. In test [3] (5 days (LP5), last 2 days of the second phase of MWM testing), the “thigmotaxic (wall-hugging) swim patterns” value is “reduction of thigmotaxic behavior”. In addition, the “Morris water maze performance” value is listed as “did not show any beneficial effect” in test [4] (high dose 32 mg/kg in a cyclodextrin-containing vehicle), “consistent improvement in Morris water maze performance” in test [4] (low dose 8 mg/kg in a cyclodextrin-containing vehicle) and “consistent improvement in Morris water maze performance” in test [4] (moderate dose 16 mg/kg in a cyclodextrin-containing vehicle). Also, the “sticker removal task (sensory neglect)” value in test [5] (high dose 32 mg/kg in cyclodextrin-containing carrier) is recorded as “degraded to lesion control levels”; in test [5] (low dose 8 mg/kg in cyclodextrin-containing carrier), “initially produce behavioral recovery”; in test [5] (moderate dose 16 mg/kg in cyclodextrin-containing carrier), “improved to sham levels by day 21 post-injury”. The “post injury cerebral edema” value in test [6] (following a contusion injury) is “reduces the severity of post injury cerebral edema”. For the same molecule, in test [6] (previous studies with this injury model), the “neuronal loss in the LMDN” value is given as “can significantly reduce this neuronal loss”. In addition, in test [7], the “permeability of the BBB” value is “reduce the permeability of the BBB to macromolecules, but not ions”. The “cell death in vitro” value in test [8] is listed as “prevent cell death in vitro”.

The values above are taken from US20050187188A1, “Methods for the treatment of a traumatic central nervous system injury” (Emory University, priority 2000, published 2005).
